Assay results: patent publication US12036199B1 (Dynamic Biologics Inc., priority 2023, dated 2024)

Assays:
[1] = cited from earlier work
[2] = In vitro stability of 10 μM DB104 incubated in fresh human plasma (HRMS / LC-MS detection of DB104, intermediates and L-DOPA); format: in vitro ADME; settings: for half-life at 10 μM: human, fresh human plasma; for degradation product of DB104 observed in human plasma: human plasma incubation of DB104
Description: (§1) 10 μM DB104 (DB104 is identified above and is one of the Derivatives of the present invention) was incubated in fresh plasma and phosphate buffer saline (PBS) in multiple aliquots, and each aliquot was divided into two equal halves at the following time points: 0, 1, 2, 4, 6, 24, 48, 72, 96, 120, 144, 168, 192, 216, 240, and 264 h. The first half was quenched with ACN:MeOH containing 1% formic acid and analyzed on the high-resolution mass spectroscopy (HRMS) to detect DB104 and all other possible intermediates. Labetalol was used as internal standard (IS). The other half was quenched with perchloric acid and analyzed on an AB Sciex 7500 mass spectrometer to detect L-DOPA. Dopamine-d4 will be used as IS.
(§2) Possible intermediates structures from the steps above are as follows:
(§3) DB104 took about 4 h and 1-4 h to get fully solubilized in human plasma and PBS, respectively. This was evident by initial increase in peak area followed by degradation. All peak area ratios were normalized to the max peak area ratio value observed. […] DB104M2 was not observed in either human plasma or PBS.

[3] = In vitro stability of 10 μM DB104 incubated in phosphate buffer saline (PBS); format: physicochemical; settings: for half-life at 10 μM: phosphate buffer saline (PBS)
Description: as §1, §2, §3

[4] = Phase III clinical trials; cited from earlier work
[5] = cited from earlier work; remark: listed apart in the source

## C[C@@](Cc1ccc(O)c(O)c1)(NN)C(=O)O [Carbidopa]
[1]; carbidopa administered with levodopa
  reduction of the amount of levodopa required to produce a given response: 75%

## CCCCCCCCCCCCOC(=O)[C@@H](N)Cc1ccc(OC(=O)CCCCCCCCCCC)c(OC(=O)CCCCCCCCCCC)c1 [DB104, (S)-4-(2-amino-3-(dodecyloxy)-3-oxopropyl)-1,2-phenylene didodecanoate]
[2]; human plasma, initial increase in peak area
  time to get fully solubilized in human plasma: about 4 h
[2]; 10 μM DB104, fresh human plasma, 0-264 h, read-out: In vitro half-life in human plasma (converted)
  half-life at 10 μM: 13.1 ± 1.4 h
[2]; human plasma, summary estimate, read-out: in vitro half-life estimated, human plasma (converted)
  half-life at 10 μM: ~12 h
[3]; L-DOPA formed from DB104 in PBS
  time over which L-DOPA is formed at detectable amounts, PBS: up to 72 h
[3]; PBS, initial increase in peak area
  time to get fully solubilized in PBS: 1 to 4 h
[3]; 10 μM DB104, PBS, 0-264 h, read-out: In vitro half-life in PBS (converted)
  half-life at 10 μM: 12.4 ± 2.6 h
[3]; PBS, summary estimate, read-out: in vitro half-life estimated, PBS (converted)
  half-life at 10 μM: ~12 h

## CCCCCCCCCCCC(=O)Oc1ccc(CC(N)C(=O)O)cc1OC(=O)CCCCCCCCCCC (stereo not shown) [DB104M1]
[2]
  degradation product of DB104 observed in human plasma: observed in PBS only
[3]; PBS incubation of DB104
  degradation product of DB104 observed in PBS: observed in PBS only

## CCCCCCCCCCCC(=O)Oc1cc(CC(N)C(=O)O)ccc1O (stereo not shown) [DB104M2]
[2]
  degradation product of DB104 observed in human plasma: not observed
[3]; PBS incubation of DB104
  degradation product of DB104 observed in PBS: not observed

## CCCCCCCCCCCCOC(=O)C(N)Cc1ccc(O)c(O)c1 (stereo not shown) [DB104M3]
[2]
  degradation product of DB104 observed in human plasma: observed
[3]; PBS incubation of DB104
  degradation product of DB104 observed in PBS: observed

## CCCCCCCCCCCCOC(=O)C(N)Cc1ccc(O)c(OC(=O)CCCCCCCCCCC)c1 (stereo not shown) [DB104M4]
[2]
  degradation product of DB104 observed in human plasma: observed
[3]; PBS incubation of DB104
  degradation product of DB104 observed in PBS: observed
  rank of degradant in PBS: major degradant

## CCOC(=O)[C@@H](N)Cc1ccc(O)c(O)c1 [Etilevodopa]
[4]
  efficacy compared with Levodopa: less efficacious than Levodopa

## N[C@@H](Cc1ccc(O)c(O)c1)C(=O)O [Levodopa, (S)-2-amino-3-(3,4-dihydroxyphenyl)propanoic acid, reference compound]
[5]
  Plasma half-life of levodopa alone: ~0.833 h
[2]
  degradation product of DB104 observed in human plasma: observed
[3]; PBS incubation of DB104
  degradation product of DB104 observed in PBS: observed

## CCN(CC)C(=O)/C(C#N)=C/c1cc(O)c(O)c([N+](=O)[O-])c1 [entacapone]
[1]; 200 mg entacapone co-administered with levodopa/carbidopa
  increase of levodopa plasma exposure: 35-40%
